# Results from patent EP1635833B1 (priority 2003, dated 2004).
# Read-outs that look alike come from different tables or passages of the source.
# Assays:
# [1] = tested on: acetone-induced lifting behaviour; assay: Tolerance in a chronic neuropathic pain model (CCI gerbils, acetone spray test); assay type: in vivo; conditions: 11 days
# [2] = tested on: opioid-induced PCO2 increases; conditions: in vivo
# [3] = tested on: opioid-induced PCO2 increases; conditions: guinea pig, in vivo
# [4] = tested on: opioid-induced PCO2 increases; conditions: rat, in vivo
# [5] = tested on: ricinus oil-induced diarrhea; conditions: in vivo
# [6] = tested on: ricinus oil-induced diarrhea; conditions: rat, in vivo
# charcoal propulsion [7] = conditions: in vivo
# [8] = tested on: ricinus oil-induced diarrhea; assay: whole plant or invertebrate; conditions: in Meriones unguiculatus, sc, 8 h, read-out: ED50 to postpone the ricinus oil-induced diarrhea
# charcoal propulsion [9] = assay: animal or person; assay type: in vivo, rats; conditions: Rattus norvegicus, sc, read-out: ED50 for an inhibition of charcoal propulsion (<60 %)
# [10] = tested on: ricinus oil-induced diarrhea; assay: whole plant or invertebrate; conditions: in Rattus norvegicus, sc, 4 h, read-out: ED50 to postpone the ricinus oil-induced diarrhea
smiles,measurement,setting,value
"Cc1cccc(C)c1NC(=O)CN1CCN(C2CCN(C(=O)c3cc(C(F)(F)F)cc(C(F)(F)F)c3)C(Cc3ccccc3)C2)CC1 (single isomer, unassigned; (+)) [Compound 95, (+)-(B)-trans-4-[1-[3,5-bis(trifluoromethyl)benzoyl]-2-(phenylmethyl)-4-piperidinyl]-N-(2,6-dimethylphenyl)-1-piperazine acetamide, (L)-malic acid (1:1)]",acetone-induced lifting behaviour,[1]; 2.5 mg/kg Compound 95 i.p. twice daily alone,limited activity
same,"acetone-induced lifting behaviour, activity over time",[1]; 2.5 mg/kg Compound 95 with 2.5 mg/kg morphine i.p. twice daily,the activity remained present over the entire testing period
same,"reduction of the frequency of retches, vomiting and periods of emesis",morphine-induced emesis; at 0.4 mg/kg morphine (submaximal dose),non-significant tendency
same,doses with activity on periods of emesis,morphine-induced emesis; at 0.8 mg/kg morphine,≥ 2.5 mg/kg
same,number (frequency) of vomits,"morphine-induced emesis; at 0.8 mg/kg morphine, 10 mg/kg Compound 95 i.p.",diminished significantly
same,number of retches,"morphine-induced emesis; at 0.8 mg/kg morphine, doses of 10 and 40 mg/kg i.p. Compound 95",significantly reduced
same,PCO2 values,[2],no effects were observed
same,opioid-induced PCO2 levels,[2],significant decreases
same,PCO2 values,[3],did not affect PCO2 values
same,opioid-induced PCO2 levels,[3],reductions in the opioid-induced PCO2 levels
same,number of animals reaching high (>50 mm Hg) levels of PCO2,[4],reduced
same,PCO2 levels,"[4]; sc, 40 mg/kg",did not affect the PCO2 levels
same,effect of adding Compound 95 on the ED50s of the opioids,[5],did not alter
same,effects on constipation,[5],minimal effects
same,effect of adding Compound 95 on the ED50s of the opioids,[6],did not alter
same,effects on constipation,[6],minimal effects
same,effect of adding Compound 95 on the outcome of the opioids,charcoal propulsion [7],did not affect the outcome of the opioids
same,inhibition of the charcoal propulsion,charcoal propulsion [7],inactive
"COc1ccc2c3c1O[C@H]1[C@@H](O)C=C[C@H]4[C@@H](C2)N(C)CC[C@@]341 [Codeine, codeine]",inhibition of the ricinus oil -induced diarrhea,[5],dose-dependent inhibition
same,ED50,[8],1.67 mg/kg
"CN1CC[C@]23c4c5ccc(O)c4O[C@H]2[C@@H](O)C=C[C@H]3[C@H]1C5 [Morphine, morphine]",ED50,charcoal propulsion [9],1.66 mg/kg
same,doses causing central side-effects,"morphine-induced emesis; in vivo, ip",> 0.8 mg/kg
same,PCO2,[3]; sc,increase in PCO2
same,levels of Pco2,[4],increased levels of Pco2
same,inhibition of the ricinus oil -induced diarrhea,[5],dose-dependent inhibition
same,inhibition of the ricinus oil -induced diarrhea,[6],dose-dependent inhibition
same,ED50,[10],2.19 mg/kg
"COc1ccc2c3c1O[C@H]1C(=O)CC[C@@]4(O)[C@@H](C2)N(C)CC[C@]314 [Oxycodone, oxycodone]",inhibition of the ricinus oil -induced diarrhea,[5],dose-dependent inhibition
